# Test results published in patent US8916183B2, “Pesticidal compositions and processes related thereto” (priority 2012, dated 2014).
# Assays:
# Type in all cases: in vivo
# [1] = test system: Green Peach Aphid (GPA) (Myzus persicae); assay: Bioassay on green peach aphid (GPA), foliar spray on cabbage seedlings; details: green peach aphid, 200 ppm, read-out: % Mortality GPA 200 ppm
# Method in brief: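 Cabbage seedlings (2-3 true leaves), each infested a day earlier with 20-50 wingless adult and nymph GPA, were sprayed on both leaf sides to runoff, four pots per treatment. Corrected % control was calculated against solvent-check plants.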
# [2] = test system: Corn Earworm (CEW) (Helicoverpa zea); assay: Bioassay on corn earworm (CEW), 128-well diet tray assay; details: Helicoverpa zea; corn earworm, 50 μg/cm^2; read-out: % Mortality CEW 50 μg/cm^2
# Method in brief: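 Activity was scored as percent larval mortality per well, averaged across eight wells and reported on a rating scale. Diet trays (128-well) were kept at 25° C with 14:10 light-dark for five to seven days.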
# [3] = test system: Beet Armyworm (BAW) (Spodoptera exigua); assay: Bioassay on beet armyworm (BAW), 128-well diet tray assay; details: Spodoptera exigua; beet armyworm, 50 μg/cm^2; read-out: % Mortality BAW 50 μg/cm^2
SMILES,mortality at 200 ppm [1] [%],mortality at 50 µg/cm2 [2] [%],mortality at 50 µg/cm2 [3] [%]
Cc1cc(Br)cc(C)c1N1CCCS/C1=N\N=C\c1ccc(-c2ncn(-c3ccc(OC(F)(F)F)cc3)n2)cc1 [Compound 203C],0 to 80,50 to 100,50 to 100
CC(C)c1ccccc1N1CCCCS/C1=N\N=C\c1ccc(-c2ncn(-c3ccc(OC(F)(F)F)cc3)n2)cc1 [Compound 212C],0,50 to 100,50 to 100
COc1cccc(N2CCS/C2=N\N=C\c2ccc(-c3ncn(-c4ccc(OC(F)(F)F)cc4)n3)cc2)c1 [Compound 147C],0 to 80,50 to 100,50 to 100
COc1ccc(C(C)/N=C(/N/N=C/c2ccc(-c3ncn(-c4ccc(OC(F)(F)F)cc4)n3)cc2)SCC(=O)O)cc1F (stereo not drawn) [Compound 53C],0 to 80,0,0 to 50
CC(C)c1ccccc1N1/C(=N/N=C/c2ccc(-c3ncn(-c4ccc(OC(F)(F)C(F)(F)F)cc4)n3)cc2)SCC1(C)O (stereo not drawn) [Compound 262C],0 to 80,50 to 100,50 to 100
Cc1cccc(C)c1/N=C(/N/N=C/c1ccc(-c2ncn(-c3ccc(OC(F)(F)F)cc3)n2)cc1)SCc1ccc(F)cc1F [Compound 7C],0,50 to 100,0
COc1ccc(N2CCS/C2=N\N=C\c2ccc(-c3ncn(-c4ccc(OC(F)(F)F)cc4)n3)cc2)c(C)c1 [Compound 137C],0,50 to 100,50 to 100
Cc1cccc(C)c1-n1c(-c2ccc(C(F)(F)F)cc2)cs/c1=N\N=Cc1ccc(-c2ncn(-c3ccc(OC(F)(F)F)cc3)n2)cc1 [Compound 79C],0 to 80,50 to 100,50 to 100
Cc1cccc(C)c1/N=C(/N/N=C/c1ccc(-c2ncn(-c3ccc(OC(F)(F)F)cc3)n2)cc1)SCC(=O)NCC(N)C(=O)O (stereo not drawn) [Compound 63C],0,50 to 100,50 to 100
COc1ccccc1N1C(=O)CS/C1=N\N=C\c1ccc(-c2ncn(-c3ccc(OC(F)(F)F)cc3)n2)cc1 [Compound 92C],0 to 80,50 to 100,50 to 100
Cc1cccc(Cl)c1N1/C(=N/N=C/c2ccc(-c3ncn(-c4ccc(OC(F)(F)F)cc4)n3)cc2)SCC1C (stereo not drawn) [Compound 158C],0 to 80,50 to 100,50 to 100
FC(F)(F)Oc1ccc(-n2cnc(-c3ccc(/C=N/N=C4\SCCCN4c4ccccc4-c4ccccc4)cc3)n2)cc1 [Compound 194C],0 to 80,50 to 100,50 to 100
COc1cc(C)c(/N=C(/N/N=C/c2ccc(-c3ncn(-c4ccc(OC(F)(F)F)cc4)n3)cc2)SCOC(=O)C(C)(C)C)c(C)c1 [Compound 40C],0 to 80,50 to 100,50 to 100
CCc1cccc(C)c1N1C(=O)CS/C1=N\N=C\c1ccc(-c2ncn(-c3ccc(OC(F)(F)F)cc3)n2)cc1 [Compound 111C],0 to 80,50 to 100,50 to 100
CC1(O)CS/C(=N\N=C\c2ccc(-c3ncn(-c4ccc(OC(F)(F)F)cc4)n3)cc2)N1c1c(F)cccc1F (stereo not drawn) [Compound 240C],0,50 to 100,50 to 100
Cc1cccc(C)c1/N=C(/N/N=C/c1ccc(-c2ncn(-c3ccc(OC(F)(F)F)cc3)n2)cc1)SCC(=O)O [Compound 47C],0 to 80,50 to 100,50 to 100
CC(C)=Cc1ccccc1N1CCCS/C1=N\N=C\c1ccc(-c2ncn(-c3ccc(OC(F)(F)F)cc3)n2)cc1 [Compound 197C],0,50 to 100,50 to 100
Cc1ccccc1N1/C(=N/N=C/c2ccc(-c3ncn(-c4ccc(OC(F)(F)F)cc4)n3)cc2)SCC1C (stereo not drawn) [Compound 154C],0 to 80,50 to 100,50 to 100
Cc1cccc(Cl)c1N1/C(=N/N=C/c2ccc(-c3ncn(-c4ccc(OC(F)(F)F)cc4)n3)cc2)SCC1(C)O (stereo not drawn) [Compound 244C],0,50 to 100,50 to 100
CCc1ccccc1N1CCS/C1=N\N=C\c1ccc(-c2ncn(-c3ccc(OC(F)(F)F)cc3)n2)cc1 [Compound 133C],0 to 80,50 to 100,50 to 100
CCCc1ccccc1N1/C(=N/N=C/c2ccc(-c3ncn(-c4ccc(OC(F)(F)F)cc4)n3)cc2)SCC1(C)O (stereo not drawn) [Compound 256C],0 to 80,50 to 100,50 to 100

SMILES,mortality at 200 ppm [1] [%],mortality at 50 µg/cm2 [2] [%],mortality at 50 µg/cm2 [3] [%]
CCC(C)c1ccccc1N1C(=O)CS/C1=N\N=C\c1ccc(-c2ncn(-c3ccc(OC(F)(F)F)cc3)n2)cc1 (stereo not drawn) [Compound 108C],0,50 to 100,50 to 100
CC(C)c1cccc(F)c1N1/C(=N/N=C/c2ccc(-c3ncn(-c4ccc(OC(F)(F)F)cc4)n3)cc2)SCC1(C)O (stereo not drawn) [Compound 250C],0 to 80,50 to 100,50 to 100
"CS/C(=N\c1ccc(N(C)C)cc1)N/N=C/c1ccc(-c2ncn(-c3ccc(OC(F)(F)F)cc3)n2)cc1 [Compound 1C, N-(4-dimethylaminophenyl)-S-methyl-2-{4-[1-(4-trifluoromethoxyphenyl)-1H-[1,2,4]-triazol-3-yl]-benzylidene}-hydrazine-carbothioamide]",0,50 to 100,50 to 100
COc1cc(C)c(/N=C(/N/N=C/c2ccc(-c3ncn(-c4ccc(OC(F)(F)F)cc4)n3)cc2)SCC(=O)NCCCN)c(C)c1 [Compound 64C],0,50 to 100,50 to 100
Cc1ccccc1N1/C(=N/N=C/c2ccc(-c3ncn(-c4ccc(OC(F)(F)F)cc4)n3)cc2)SCC1(C)O (stereo not drawn) [Compound 248C],0 to 80,50 to 100,50 to 100
CC(C)c1ccccc1N1CCCS/C1=N\N=C\c1ccc(-c2ncn(-c3ccc(OC(F)(F)F)cc3)n2)cc1 [Compound 177C],0,50 to 100,50 to 100
CCOCC(=O)OCS/C(=N\c1c(C)cccc1C)N/N=C/c1ccc(-c2ncn(-c3ccc(OC(F)(F)F)cc3)n2)cc1 [Compound 22C],0 to 80,50 to 100,50 to 100
CC(C)Cc1ccccc1N1CCS/C1=N\N=C\c1ccc(-c2ncn(-c3ccc(OC(F)(F)F)cc3)n2)cc1 [Compound 150C],0,50 to 100,50 to 100
Cc1cccnc1N1CCCS/C1=N\N=C\c1ccc(-c2ncn(-c3ccc(OC(F)(F)F)cc3)n2)cc1 [Compound 198C],0,50 to 100,50 to 100
CC1S/C(=N\N=C\c2ccc(-c3ncn(-c4ccc(OC(F)(F)F)cc4)n3)cc2)N(c2c(F)cccc2F)C1=O (stereo not drawn) [Compound 131C],0,50 to 100,50 to 100
COc1ccc(C)cc1N1CCCS/C1=N\N=C\c1ccc(-c2ncn(-c3ccc(OC(F)(F)F)cc3)n2)cc1 [Compound 204C],0 to 80,50 to 100,50 to 100
Cc1cccc(C)c1N1C(=O)CS/C1=N\N=C\c1ccc(-c2ncn(-c3ccc(OC(F)(F)F)cc3)n2)cc1 [Compound 71C],0,50 to 100,50 to 100
Cc1cccc(C)c1/N=C(/N/N=C/c1ccc(-c2ncn(-c3ccc(OC(F)(F)F)cc3)n2)cc1)SCc1ccc(S(C)(=O)=O)cc1 [Compound 17C],0 to 80,50 to 100,50 to 100
Cc1ccccc1N1CCCS/C1=N\N=C\c1ccc(-c2ncn(-c3ccc(OC(F)(F)F)cc3)n2)cc1 [Compound 195C],0 to 80,50 to 100,50 to 100
Cc1cccc(C)c1/N=C(/N/N=C/c1ccc(-c2ncn(-c3ccc(OC(F)(F)F)cc3)n2)cc1)SCOC(=O)OC(C)C [Compound 24C],0 to 80,50 to 100,50 to 100
CC(C)c1ccccc1N1/C(=N/N=C/c2ccc(-c3ncn(-c4ccc(C(F)(C(F)(F)F)C(F)(F)F)cc4)n3)cc2)SCC1(C)O (stereo not drawn) [Compound 260C],0,50 to 100,50 to 100
Cc1cccc(C)c1/N=C(/N/N=C/c1ccc(-c2ncn(-c3ccc(OC(F)(F)F)cc3)n2)cc1)SCC(=O)NCC(C)C [Compound 55C],0,50 to 100,50 to 100
COc1cc(C)c(N2CCS/C2=N\N=C\c2ccc(-c3ncn(-c4ccc(OC(F)(F)F)cc4)n3)cc2)c(C)c1 [Compound 138C],0 to 80,50 to 100,50 to 100
Cc1cccc(C)c1/N=C(/N/N=C/c1ccc(-c2ncn(-c3ccc(OC(F)(F)F)cc3)n2)cc1)SCOC(=O)CNC(=O)OC(C)(C)C [Compound 30C],0 to 80,50 to 100,50 to 100
COc1cc(C)c(/N=C(/N/N=C/c2ccc(-c3ncn(-c4ccc(OC(F)(F)C(F)(F)F)cc4)n3)cc2)SCOC(=O)C(C)C)c(C)c1 [Compound 37C],0,50 to 100,50 to 100
